{
  "source": "paper PMC3905461",
  "about": "(Chembiochem : a European journal of chemical biology, 2013)",
  "key": {"[1]": {"target": "T1, RpaR (Rhodopseudomonas palustris, UniProt Q6NCZ5)", "T1 sequence (Q6NCZ5 whole entry)": "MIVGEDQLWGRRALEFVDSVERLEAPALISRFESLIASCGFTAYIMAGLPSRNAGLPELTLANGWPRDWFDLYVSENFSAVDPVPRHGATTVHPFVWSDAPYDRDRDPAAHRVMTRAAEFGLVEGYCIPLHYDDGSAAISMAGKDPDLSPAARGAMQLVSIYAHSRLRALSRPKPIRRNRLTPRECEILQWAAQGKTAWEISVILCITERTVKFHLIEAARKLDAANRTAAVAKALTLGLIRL", "experiment": "RpaR agonism reporter gene assay", "type": "cell-based", "details": "for EC50: EC50 value, dose response in R. palustris CGA814 reporter; for activation at 1 µM: read-out: Percent activation; for Drop in agonistic activity relative to 1: compared with 2-fluoro cinnamoyl HL 1; for Percent activation: 1 μM synthetic ligand, relative to p-cAHL at 1 μM, triplicate of triplicate, error < ±10%"}, "[2]": {"target": "T1, RpaR", "details": "extracts from wild-type R. palustris grown with the aromatic acid; cited from earlier work"}, "[3]": {"tested_on": "LuxR", "details": "V. fischeri LuxR; ref 7j, 7l; cited from earlier work"}, "[4]": {"tested_on": "other LuxR-type receptors", "details": "ref 7j; cited from earlier work"}, "[5]": {"target": "T1, RpaR", "experiment": "Competitive RpaR antagonism reporter gene assay against p-cAHL", "type": "cell-based", "details": "for Percent inhibition: 1 μM synthetic ligand against p-cAHL at its EC50 value (1 nM), negative values indicate agonistic responses, error < ±10%"}},
  "note": "Values joined by “and” are separate entries in the source; they are usually repeats but may differ in a detail not shown here. Equal values may be shown once.",
  "data": [
    {"compound": "O=C(/C=C/c1ccccc1F)N[C@H]1CCOC1=O", "note": "[Compound 1, 2-fluoro cinnamoyl HL]", "values": [
      {"measurement": "EC50", "setting": "[1]", "value": 3.4, "unit": "nM"},
      {"measurement": "activation at 1 µM", "setting": "[1]", "value": 99, "unit": "%"}
    ]},
    {"compound": "O=C(/C=C/c1cccc(F)c1)N[C@H]1CCOC1=O", "note": "[Compound 2]", "values": [
      {"measurement": "EC50", "setting": "[1]", "value": 65.6, "unit": "nM"},
      {"measurement": "Drop in agonistic activity relative to 1", "setting": "[1]", "value": 20, "unit": "fold"},
      {"measurement": "activation at 1 µM", "setting": "[1]", "value": 84, "unit": "%"}
    ]},
    {"compound": "O=C(/C=C/c1ccc(F)cc1)N[C@H]1CCOC1=O", "note": "[Compound 3, 4-fluoro cinnamoyl HL]", "values": [
      {"measurement": "Agonistic activity at 1 μM", "setting": "[1]; 1 μM", "value": "inactive"},
      {"measurement": "Percent activation", "setting": "[1]", "value": 1, "unit": "%"}
    ]},
    {"compound": "O=C(/C=C/c1c(F)cccc1F)N[C@H]1CCOC1=O", "note": "[Compound 4, 2,6-difluoro cinnamoyl HL]", "values": [
      {"measurement": "EC50", "setting": "[1]", "value": 4.8, "unit": "nM"},
      {"measurement": "activation at 1 µM", "setting": "[1]", "value": 101, "unit": "%"}
    ]},
    {"compound": "O=C(/C=C/c1ccccc1Br)N[C@H]1CCOC1=O", "note": "[Compound 10, 2-bromo cinnamoyl HL]", "values": [
      {"measurement": "EC50", "setting": "[1]", "value": 77.1, "unit": "nM"},
      {"measurement": "Drop in agonistic activity relative to 1", "setting": "[1]", "value": "~ 20 fold"},
      {"measurement": "activation at 1 µM", "setting": "[1]", "value": 118, "unit": "%"}
    ]},
    {"compound": "O=C(/C=C/c1ccccc1O)N[C@H]1CCOC1=O", "note": "[Compound 15, ortho-cAHL]", "values": [
      {"measurement": "EC50", "setting": "[1]", "value": 1170, "unit": "nM"},
      {"measurement": "activation at 1 µM", "setting": "[1]", "value": 59, "unit": "%"}
    ]},
    {"compound": "O=C(/C=C/c1cccc(O)c1)N[C@H]1CCOC1=O", "note": "[Compound 16, meta-cAHL]", "values": [
      {"measurement": "EC50", "setting": "[1]", "value": 144, "unit": "nM"},
      {"measurement": "activation at 1 µM", "setting": "[1]", "value": 94, "unit": "%"}
    ]},
    {"compound": "O=C(/C=C/c1ccc(O)c(O)c1)N[C@H]1CCOC1=O", "note": "[Compound 17, caffeoyl HL]", "values": [
      {"measurement": "Percent activation", "setting": "[1]", "value": 14, "unit": "%"}
    ]},
    {"compound": "COc1cc(C=CC(=O)NC2CCOC2=O)ccc1O", "note": "(stereo not shown) [Compound 18]", "values": [
      {"measurement": "RpaR agonist activity", "setting": "[2]", "value": "inactive"}
    ]},
    {"compound": "O=C(CCc1ccc(O)cc1)N[C@H]1CCOC1=O", "note": "[Compound 19]", "values": [
      {"measurement": "EC50", "setting": "[1]", "value": 532, "unit": "nM"},
      {"measurement": "activation at 1 µM", "setting": "[1]", "value": 72, "unit": "%"},
      {"measurement": "EC50 value higher than p-cAHL", "setting": "[1]; relative to p-cAHL", "value": 500, "unit": "fold"}
    ]},
    {"compound": "O=C(/C=C/c1ccccc1)N[C@H]1CCOC1=O", "note": "[Compound B10, cinnamoyl HL]", "values": [
      {"measurement": "EC50", "setting": "[1]", "value": 32.3, "unit": "nM"},
      {"measurement": "activation at 1 µM", "setting": "[1]", "value": 65, "unit": "%"}
    ]},
    {"compound": "O=C(CCC1CCCCC1)N[C@H]1CCOC1=O", "note": "[Compound B11, cyclohexyl HL]", "values": [
      {"measurement": "LuxR antagonism", "setting": "[3]", "value": "strong antagonists"}
    ]},
    {"compound": "O=C(COc1ccccc1)N[C@H]1CCOC1=O", "note": "[Compound E14, POHL]", "values": [
      {"measurement": "Activity as agonist or antagonist in other LuxR-type receptors", "setting": "[4]", "value": "largely inactive"}
    ]},
    {"compound": "O=C(COc1cccc([N+](=O)[O-])c1)N[C@H]1CCOC1=O", "note": "[Compound E25, 3-NO2 POHL]", "values": [
      {"measurement": "IC50", "setting": "[5]", "value": 238, "unit": "nM"},
      {"measurement": "Percent inhibition", "setting": "[5]", "value": 63, "unit": "%"},
      {"measurement": "LuxR antagonism", "setting": "[3]", "value": "strong antagonists"}
    ]},
    {"compound": "O=C(CCc1ccc(F)cc1)N[C@H]1CCOC1=O", "note": "[Compound E29, 4-F PPHL]", "values": [
      {"measurement": "IC50", "setting": "[5]", "value": 300, "unit": "nM"},
      {"measurement": "Percent inhibition", "setting": "[5]", "value": 70, "unit": "%"},
      {"measurement": "LuxR antagonism", "setting": "[3]", "value": "strong antagonists"}
    ]},
    {"compound": "O=C(CCc1ccc([N+](=O)[O-])cc1)N[C@H]1CCOC1=O", "note": "[Compound E37, 4-NO2 PPHL]", "values": [
      {"measurement": "IC50", "setting": "[5]", "value": 235, "unit": "nM"},
      {"measurement": "Percent inhibition", "setting": "[5]", "value": 89, "unit": "%"},
      {"measurement": "LuxR antagonism", "setting": "[3]", "value": "strong antagonists"}
    ]},
    {"compound": "O=C(CCc1ccc2c(c1)OCO2)N[C@H]1CCOC1=O", "note": "[Compound E39, 1,3-benzodioxole PPHL]", "values": [
      {"measurement": "IC50", "setting": "[5]", "value": 228, "unit": "nM"},
      {"measurement": "Percent inhibition", "setting": "[5]", "value": 63, "unit": "%"}
    ]},
    {"compound": "O=C(/C=C/c1ccc(O)cc1)N[C@H]1CCOC1=O", "note": "[p-cAHL, p-coumaroyl HL, reference compound]", "values": [
      {"measurement": "EC50", "setting": "[1]", "value": "1 nM and ~1 nM"}
    ]}
  ]
}
